Source: the kinase profiling compilation of Christmann-Franck et al. (2016)

Assays:
JAK2 JH1 JH2 (human) = JAK2 JH1 JH2 (human) (UniProt O60674); assay: Caliper, Mobility shift assay off-chip
EPHA6 (human) = EPHA6 (human) (UniProt Q9UF33); assay: Caliper, Mobility shift assay off-chip
KIT (human) = KIT (human) (UniProt P10721); assay: Caliper, Mobility shift assay off-chip
CDC7 (human) = CDC7 (human) (UniProt O00311); assay: Caliper, Mobility shift assay off-chip
RPS6KB2 (human) = RPS6KB2 (human) (UniProt Q9UBS0); assay: Caliper, Mobility shift assay off-chip
CAMK2D (human) = CAMK2D (human) (UniProt Q13557); assay: Caliper, Mobility shift assay off-chip; settings: compound 0.2 µM
PIM2 (human) = PIM2 (human) (UniProt Q9P1W9); assay: Caliper, Mobility shift assay off-chip
JAK3 JH1 JH2 (human) = JAK3 JH1 JH2 (human) (UniProt P52333); assay: Caliper, Mobility shift assay off-chip
CAMK1 (human) = CAMK1 (human) (UniProt Q14012); assay: Caliper, Mobility shift assay off-chip
Chain of CAMK1 (human) (Q14012 whole entry, looked up): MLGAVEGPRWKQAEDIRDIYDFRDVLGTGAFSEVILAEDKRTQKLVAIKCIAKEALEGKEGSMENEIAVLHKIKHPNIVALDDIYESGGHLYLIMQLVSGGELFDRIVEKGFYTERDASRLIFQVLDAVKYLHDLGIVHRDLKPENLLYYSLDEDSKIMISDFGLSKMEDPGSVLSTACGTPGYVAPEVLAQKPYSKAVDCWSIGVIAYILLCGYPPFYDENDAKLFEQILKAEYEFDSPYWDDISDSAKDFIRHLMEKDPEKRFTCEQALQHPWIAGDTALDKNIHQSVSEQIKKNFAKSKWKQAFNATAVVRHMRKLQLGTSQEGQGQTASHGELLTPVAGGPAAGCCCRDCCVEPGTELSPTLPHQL

MAP3K2 (human) = MAP3K2 (human) (UniProt Q9Y2U5); assay: ELISA
RAF1 (human) = RAF1 (human) (UniProt P04049); assay: ELISA
MAP3K12 (human) = MAP3K12 (human) (UniProt Q12852); assay: ELISA
MAP3K11 (human) = MAP3K11 (human) (UniProt Q16584); assay: ELISA
Chain of MAP3K11 (human) (Q16584 whole entry, looked up): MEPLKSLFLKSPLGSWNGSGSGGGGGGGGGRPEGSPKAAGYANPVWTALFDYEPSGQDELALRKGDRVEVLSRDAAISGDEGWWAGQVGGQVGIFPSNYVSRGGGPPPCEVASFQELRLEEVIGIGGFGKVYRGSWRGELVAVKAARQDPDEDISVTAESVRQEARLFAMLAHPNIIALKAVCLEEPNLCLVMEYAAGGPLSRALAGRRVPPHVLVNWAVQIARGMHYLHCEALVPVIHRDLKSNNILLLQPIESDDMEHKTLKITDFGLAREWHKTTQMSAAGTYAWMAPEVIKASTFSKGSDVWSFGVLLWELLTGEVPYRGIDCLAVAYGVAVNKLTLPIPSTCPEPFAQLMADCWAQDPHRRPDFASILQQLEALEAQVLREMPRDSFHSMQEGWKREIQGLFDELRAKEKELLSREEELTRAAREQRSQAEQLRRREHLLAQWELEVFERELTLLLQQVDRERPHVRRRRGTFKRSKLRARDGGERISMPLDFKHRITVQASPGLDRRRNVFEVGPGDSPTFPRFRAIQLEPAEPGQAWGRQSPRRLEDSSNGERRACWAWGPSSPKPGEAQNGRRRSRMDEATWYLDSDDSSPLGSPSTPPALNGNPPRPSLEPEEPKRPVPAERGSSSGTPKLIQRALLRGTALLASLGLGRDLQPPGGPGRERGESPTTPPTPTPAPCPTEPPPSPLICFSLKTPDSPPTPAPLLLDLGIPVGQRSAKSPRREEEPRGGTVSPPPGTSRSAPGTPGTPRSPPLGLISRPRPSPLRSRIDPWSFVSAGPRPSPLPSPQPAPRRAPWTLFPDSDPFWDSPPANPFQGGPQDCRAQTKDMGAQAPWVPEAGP

MOS (human) = MOS (human) (UniProt P00540); assay: ELISA
MAP3K10 (human) = MAP3K10 (human) (UniProt Q02779); assay: ELISA
MAP3K3 (human) = MAP3K3 (human) (UniProt Q99759); assay: ELISA
BMPR1A (human) = BMPR1A (human) (UniProt P36894); assay: ELISA
MAP3K1 (human) = MAP3K1 (human) (UniProt Q13233); assay: ELISA
Chain of MAP3K1 (human) (Q13233 whole entry, looked up): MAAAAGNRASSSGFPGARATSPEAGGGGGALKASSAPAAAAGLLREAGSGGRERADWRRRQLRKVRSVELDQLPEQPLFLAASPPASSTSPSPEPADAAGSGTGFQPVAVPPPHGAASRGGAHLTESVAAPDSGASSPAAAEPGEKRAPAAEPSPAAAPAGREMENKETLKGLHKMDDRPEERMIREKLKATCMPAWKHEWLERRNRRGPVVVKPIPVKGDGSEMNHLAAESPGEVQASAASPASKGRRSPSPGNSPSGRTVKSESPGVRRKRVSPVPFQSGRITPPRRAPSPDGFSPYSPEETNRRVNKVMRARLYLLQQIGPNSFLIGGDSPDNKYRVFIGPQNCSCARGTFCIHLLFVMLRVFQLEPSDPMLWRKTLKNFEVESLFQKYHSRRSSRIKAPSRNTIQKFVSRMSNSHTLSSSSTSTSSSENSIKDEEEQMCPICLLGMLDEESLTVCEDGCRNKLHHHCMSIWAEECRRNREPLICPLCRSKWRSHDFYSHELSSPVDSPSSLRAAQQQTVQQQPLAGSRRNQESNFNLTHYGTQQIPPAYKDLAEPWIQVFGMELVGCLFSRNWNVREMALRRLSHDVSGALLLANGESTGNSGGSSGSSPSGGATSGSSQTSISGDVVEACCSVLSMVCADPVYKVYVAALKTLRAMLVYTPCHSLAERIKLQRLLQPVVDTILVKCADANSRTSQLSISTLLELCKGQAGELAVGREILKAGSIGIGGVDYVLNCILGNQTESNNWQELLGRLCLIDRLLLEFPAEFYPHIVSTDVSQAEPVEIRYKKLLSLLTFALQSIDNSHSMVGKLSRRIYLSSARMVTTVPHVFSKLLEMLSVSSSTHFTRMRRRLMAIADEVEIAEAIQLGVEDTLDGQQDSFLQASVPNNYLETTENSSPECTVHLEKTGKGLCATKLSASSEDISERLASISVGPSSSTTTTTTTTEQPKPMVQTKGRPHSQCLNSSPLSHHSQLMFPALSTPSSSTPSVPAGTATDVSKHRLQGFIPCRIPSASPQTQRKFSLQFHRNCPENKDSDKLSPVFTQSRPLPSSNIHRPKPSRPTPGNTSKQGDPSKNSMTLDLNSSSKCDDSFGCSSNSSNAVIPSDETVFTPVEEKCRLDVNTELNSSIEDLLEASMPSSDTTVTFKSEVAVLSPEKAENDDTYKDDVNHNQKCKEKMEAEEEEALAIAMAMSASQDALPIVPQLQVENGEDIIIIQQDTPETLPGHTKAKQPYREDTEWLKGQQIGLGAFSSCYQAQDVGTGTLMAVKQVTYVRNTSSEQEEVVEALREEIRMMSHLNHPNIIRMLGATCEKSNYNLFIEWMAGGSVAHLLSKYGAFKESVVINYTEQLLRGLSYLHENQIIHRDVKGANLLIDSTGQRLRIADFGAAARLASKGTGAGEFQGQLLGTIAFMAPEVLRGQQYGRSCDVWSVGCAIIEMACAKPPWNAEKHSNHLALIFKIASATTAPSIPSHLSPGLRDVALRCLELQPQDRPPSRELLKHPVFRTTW

TTK (human) = TTK (human) (UniProt P33981); assay: ELISA
MAP2K3 (human) = MAP2K3 (human) (UniProt P46734); assay: ELISA
MAP2K1 (human) = MAP2K1 (human) (UniProt Q02750); assay: ELISA
LIMK1 (human) = LIMK1 (human) (UniProt P53667); assay: ELISA
MAP2K2 (human) = MAP2K2 (human) (UniProt P36507); assay: ELISA
MAP3K9 (human) = MAP3K9 (human) (UniProt P80192); assay: ELISA
MAP3K4 (human) = MAP3K4 (human) (UniProt Q9Y6R4); assay: ELISA
MAP2K7 (human) = MAP2K7 (human) (UniProt O14733); assay: ELISA
MAP2K4 (human) = MAP2K4 (human) (UniProt P45985); assay: ELISA
STK11 (human) = STK11 (human) (UniProt Q15831); assay: ELISA
MAP2K5 (human) = MAP2K5 (human) (UniProt Q13163); assay: ELISA
MAP3K8 (human) = MAP3K8 (human) (UniProt P41279); assay: ELISA
PLK4 (human) = PLK4 (human) (UniProt O00444); assay: ELISA
Chain of PLK4 (human) (O00444 whole entry, looked up): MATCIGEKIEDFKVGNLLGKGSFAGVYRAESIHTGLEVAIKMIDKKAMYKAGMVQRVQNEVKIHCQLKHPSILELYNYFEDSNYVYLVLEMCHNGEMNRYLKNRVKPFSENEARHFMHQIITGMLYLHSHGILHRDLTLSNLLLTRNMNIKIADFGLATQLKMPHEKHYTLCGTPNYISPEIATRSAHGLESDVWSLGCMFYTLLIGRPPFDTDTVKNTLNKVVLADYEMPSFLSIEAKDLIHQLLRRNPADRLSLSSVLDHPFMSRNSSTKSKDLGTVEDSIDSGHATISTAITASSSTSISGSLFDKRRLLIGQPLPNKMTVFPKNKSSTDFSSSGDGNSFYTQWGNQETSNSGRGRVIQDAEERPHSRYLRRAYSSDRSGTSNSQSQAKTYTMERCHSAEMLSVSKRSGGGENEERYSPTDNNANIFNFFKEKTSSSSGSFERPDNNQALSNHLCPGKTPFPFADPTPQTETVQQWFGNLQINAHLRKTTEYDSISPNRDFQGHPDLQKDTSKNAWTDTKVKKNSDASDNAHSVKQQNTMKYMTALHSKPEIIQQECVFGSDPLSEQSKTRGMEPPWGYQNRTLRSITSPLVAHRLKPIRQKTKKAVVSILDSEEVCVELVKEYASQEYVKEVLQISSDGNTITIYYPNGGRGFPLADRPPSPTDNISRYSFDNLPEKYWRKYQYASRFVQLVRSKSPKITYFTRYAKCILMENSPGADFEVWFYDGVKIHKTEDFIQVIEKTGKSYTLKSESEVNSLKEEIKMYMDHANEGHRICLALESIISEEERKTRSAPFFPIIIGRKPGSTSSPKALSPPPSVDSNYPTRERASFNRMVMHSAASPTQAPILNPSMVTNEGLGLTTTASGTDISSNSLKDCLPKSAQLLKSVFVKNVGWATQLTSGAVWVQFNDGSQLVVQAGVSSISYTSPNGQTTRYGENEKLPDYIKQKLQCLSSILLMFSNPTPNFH

MAP2K6 (human) = MAP2K6 (human) (UniProt P52564); assay: ELISA
Chain of MAP2K6 (human) (P52564 whole entry, looked up): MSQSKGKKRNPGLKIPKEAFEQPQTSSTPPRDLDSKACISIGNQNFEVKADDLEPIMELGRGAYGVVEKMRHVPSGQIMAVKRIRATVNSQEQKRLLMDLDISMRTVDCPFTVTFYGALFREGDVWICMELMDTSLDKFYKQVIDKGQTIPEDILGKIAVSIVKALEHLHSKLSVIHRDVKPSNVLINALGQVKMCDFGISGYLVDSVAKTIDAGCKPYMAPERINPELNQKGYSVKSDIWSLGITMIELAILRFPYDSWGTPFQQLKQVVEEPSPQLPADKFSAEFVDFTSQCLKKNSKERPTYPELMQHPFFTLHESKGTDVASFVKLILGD

WEE1 (human) = WEE1 (human) (UniProt P30291); assay: ELISA
MAP3K5 (human) = MAP3K5 (human) (UniProt Q99683); assay: ELISA

Chain of EPHA6 (human) (Q9UF33 whole entry, looked up): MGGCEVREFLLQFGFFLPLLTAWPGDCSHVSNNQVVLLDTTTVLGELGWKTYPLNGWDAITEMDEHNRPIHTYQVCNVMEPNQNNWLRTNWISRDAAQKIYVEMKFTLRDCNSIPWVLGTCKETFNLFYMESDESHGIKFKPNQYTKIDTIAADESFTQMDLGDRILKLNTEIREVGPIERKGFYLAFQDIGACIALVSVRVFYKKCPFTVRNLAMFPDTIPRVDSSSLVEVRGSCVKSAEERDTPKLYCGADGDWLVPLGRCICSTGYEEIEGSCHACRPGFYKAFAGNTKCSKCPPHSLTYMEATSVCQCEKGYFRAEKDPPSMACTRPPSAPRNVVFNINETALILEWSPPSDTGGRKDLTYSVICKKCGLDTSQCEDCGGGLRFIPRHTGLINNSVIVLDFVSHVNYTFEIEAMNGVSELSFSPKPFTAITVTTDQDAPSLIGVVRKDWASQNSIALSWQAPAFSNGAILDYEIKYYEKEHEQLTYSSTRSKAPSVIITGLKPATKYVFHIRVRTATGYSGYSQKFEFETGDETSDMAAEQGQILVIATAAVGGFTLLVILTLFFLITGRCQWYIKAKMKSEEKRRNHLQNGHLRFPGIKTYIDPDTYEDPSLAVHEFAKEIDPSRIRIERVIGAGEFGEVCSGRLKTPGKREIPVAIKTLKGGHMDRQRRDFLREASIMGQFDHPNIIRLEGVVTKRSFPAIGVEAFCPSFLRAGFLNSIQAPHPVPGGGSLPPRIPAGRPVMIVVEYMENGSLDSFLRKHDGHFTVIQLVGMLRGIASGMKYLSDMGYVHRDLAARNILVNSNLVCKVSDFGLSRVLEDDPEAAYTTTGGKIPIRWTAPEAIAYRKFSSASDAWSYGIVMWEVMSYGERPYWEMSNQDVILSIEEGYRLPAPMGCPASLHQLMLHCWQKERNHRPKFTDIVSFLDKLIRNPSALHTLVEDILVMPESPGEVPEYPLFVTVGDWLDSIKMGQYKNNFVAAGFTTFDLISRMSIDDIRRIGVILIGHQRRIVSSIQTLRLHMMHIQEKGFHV

inhibition (JAK2 JH1 JH2 (human); compound 0.02 µM): -3.6% | inhibition (JAK2 JH1 JH2 (human); compound 0.2 µM): 8.1% | inhibition (EPHA6 (human); compound 0.02 µM): 16.5% | inhibition (EPHA6 (human); compound 0.2 µM): 77.8% | inhibition (KIT (human); compound 0.02 µM): 32.9% | inhibition (KIT (human); compound 0.2 µM): 89.8% | inhibition (CDC7 (human); compound 0.02 µM): -4.3% | inhibition (CDC7 (human); compound 0.2 µM): -4.2% | inhibition (RPS6KB2 (human); compound 0.02 µM): 6.3% | inhibition (RPS6KB2 (human); compound 0.2 µM): 5.5% | inhibition (CAMK2D (human)): 5.2% | inhibition (PIM2 (human); compound 0.02 µM): -0.2% | inhibition (PIM2 (human); compound 0.2 µM): 1.2% | inhibition (JAK3 JH1 JH2 (human); compound 0.02 µM): -3.6% | inhibition (JAK3 JH1 JH2 (human); compound 0.2 µM): 8.1% | inhibition (CAMK1 (human); compound 0.02 µM): -4.6% | inhibition (CAMK1 (human); compound 0.2 µM): -2.2% | inhibition (MAP3K2 (human); compound 0.02 µM): 5.2% | inhibition (MAP3K2 (human); compound 0.2 µM): 5.2% | inhibition (RAF1 (human); compound 0.02 µM): 41.7% | inhibition (RAF1 (human); compound 0.2 µM): 88.1% | inhibition (MAP3K12 (human); compound 0.02 µM): 4.1% | inhibition (MAP3K12 (human); compound 0.2 µM): 2.7% | inhibition (MAP3K11 (human); compound 0.02 µM): 2.4% | inhibition (MAP3K11 (human); compound 0.2 µM): -2.6% | inhibition (MOS (human); compound 0.02 µM): 3% | inhibition (MOS (human); compound 0.2 µM): 0.5% | inhibition (MAP3K10 (human); compound 0.02 µM): -1.8% | inhibition (MAP3K10 (human); compound 0.2 µM): -2.3% | inhibition (MAP3K3 (human); compound 0.02 µM): -2.1% | inhibition (MAP3K3 (human); compound 0.2 µM): -3% | inhibition (BMPR1A (human); compound 0.02 µM): 6.9% | inhibition (BMPR1A (human); compound 0.2 µM): 7% | inhibition (MAP3K1 (human); compound 0.02 µM): 0.7% | inhibition (MAP3K1 (human); compound 0.2 µM): -0.2% | inhibition (TTK (human); compound 0.02 µM): -7.6% | inhibition (TTK (human); compound 0.2 µM): -4.3% | inhibition (MAP2K3 (human); compound 0.02 µM): 9.8% | inhibition (MAP2K3 (human); compound 0.2 µM): 58.5% | inhibition (MAP2K1 (human); compound 0.02 µM): 13.7% | inhibition (MAP2K1 (human); compound 0.2 µM): 17.4% | inhibition (LIMK1 (human); compound 0.02 µM): 2.6% | inhibition (LIMK1 (human); compound 0.2 µM): 13% | inhibition (MAP2K2 (human); compound 0.02 µM): -1.8% | inhibition (MAP2K2 (human); compound 0.2 µM): -2.7% | inhibition (MAP3K9 (human); compound 0.02 µM): 8.6% | inhibition (MAP3K9 (human); compound 0.2 µM): 10.1% | inhibition (MAP3K4 (human); compound 0.02 µM): 8.5% | inhibition (MAP3K4 (human); compound 0.2 µM): 4.4% | inhibition (MAP2K7 (human); compound 0.02 µM): -0.7% | inhibition (MAP2K7 (human); compound 0.2 µM): 1.1% | inhibition (MAP2K4 (human); compound 0.02 µM): 1.7% | inhibition (MAP2K4 (human); compound 0.2 µM): 3.6% | inhibition (STK11 (human); compound 0.02 µM): 6.4% | inhibition (STK11 (human); compound 0.2 µM): 6.2% | inhibition (MAP2K5 (human); compound 0.02 µM): 3.6% | inhibition (MAP2K5 (human); compound 0.2 µM): 6.2% | inhibition (MAP3K8 (human); compound 0.02 µM): 0.5% | inhibition (MAP3K8 (human); compound 0.2 µM): 0.2% | inhibition (PLK4 (human); compound 0.02 µM): 10.5% | inhibition (PLK4 (human); compound 0.2 µM): 13.4% | inhibition (MAP2K6 (human); compound 0.02 µM): 13.6% | inhibition (MAP2K6 (human); compound 0.2 µM): 64.2% | inhibition (WEE1 (human); compound 0.02 µM): -7.4% | inhibition (WEE1 (human); compound 0.2 µM): -2% | inhibition (MAP3K5 (human); compound 0.02 µM): 9.6% | inhibition (MAP3K5 (human); compound 0.2 µM): 7.4%
Structure (SMILES): CNC(=O)c1cc(Oc2ccc(NC(=O)Nc3ccc(Cl)c(C(F)(F)F)c3)cc2)ccn1
